In ChEMBL document CHEMBL5291721, “A preclinical secondary pharmacology resource illuminates target-adverse drug reaction associations of marketed drugs” (Nat Commun, 2023):

How the values were obtained:
[1] = biological target: Voltage-gated inwardly rectifying potassium channel KCNH2 (Homo sapiens, UniProt Q12809); format: functional
[2] = biological target: Growth hormone secretagogue receptor type 1 (Homo sapiens, UniProt Q92847)
D(3) dopamine receptor = D(3) dopamine receptor (Homo sapiens, UniProt P35462)
Chain of D(3) dopamine receptor (P35462 whole entry): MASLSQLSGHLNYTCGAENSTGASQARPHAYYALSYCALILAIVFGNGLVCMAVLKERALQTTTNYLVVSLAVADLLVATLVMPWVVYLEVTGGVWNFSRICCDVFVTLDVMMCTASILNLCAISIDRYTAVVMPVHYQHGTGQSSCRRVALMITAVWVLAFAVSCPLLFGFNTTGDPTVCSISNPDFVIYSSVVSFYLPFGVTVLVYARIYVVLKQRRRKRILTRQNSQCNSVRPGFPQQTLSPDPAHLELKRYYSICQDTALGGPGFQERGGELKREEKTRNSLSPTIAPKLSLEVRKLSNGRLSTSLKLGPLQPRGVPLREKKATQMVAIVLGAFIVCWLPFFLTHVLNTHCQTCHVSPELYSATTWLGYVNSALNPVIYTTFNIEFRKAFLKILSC

Thromboxane A2 receptor = biological target: T1, Thromboxane A2 receptor (Homo sapiens, UniProt P21731)
T1 sequence (P21731 whole entry): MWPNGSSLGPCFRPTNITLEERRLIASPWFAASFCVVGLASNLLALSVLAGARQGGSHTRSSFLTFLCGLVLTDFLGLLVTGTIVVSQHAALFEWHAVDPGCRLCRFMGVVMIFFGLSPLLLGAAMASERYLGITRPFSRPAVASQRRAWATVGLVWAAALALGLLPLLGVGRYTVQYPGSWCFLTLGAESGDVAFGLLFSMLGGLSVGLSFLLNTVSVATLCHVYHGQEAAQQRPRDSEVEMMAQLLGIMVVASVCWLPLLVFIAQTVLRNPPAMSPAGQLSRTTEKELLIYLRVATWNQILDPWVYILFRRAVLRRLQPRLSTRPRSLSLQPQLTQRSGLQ

B2 bradykinin receptor = biological target: T2, B2 bradykinin receptor (Homo sapiens, UniProt P30411)
T2 sequence (P30411 whole entry): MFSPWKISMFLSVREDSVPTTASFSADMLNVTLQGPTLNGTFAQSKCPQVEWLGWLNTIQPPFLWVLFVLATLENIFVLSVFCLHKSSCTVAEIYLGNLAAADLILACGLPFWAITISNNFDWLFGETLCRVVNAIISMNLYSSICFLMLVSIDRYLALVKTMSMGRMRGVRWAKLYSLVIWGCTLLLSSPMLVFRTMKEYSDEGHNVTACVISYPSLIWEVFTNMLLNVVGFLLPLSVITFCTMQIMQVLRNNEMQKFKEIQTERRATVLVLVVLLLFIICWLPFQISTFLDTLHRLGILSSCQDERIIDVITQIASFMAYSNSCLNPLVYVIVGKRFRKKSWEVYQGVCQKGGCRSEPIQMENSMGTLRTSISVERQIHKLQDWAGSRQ

Adenosine receptor A1 = biological target: T3, Adenosine receptor A1 (Homo sapiens, UniProt P30542)
T3 sequence (P30542 whole entry): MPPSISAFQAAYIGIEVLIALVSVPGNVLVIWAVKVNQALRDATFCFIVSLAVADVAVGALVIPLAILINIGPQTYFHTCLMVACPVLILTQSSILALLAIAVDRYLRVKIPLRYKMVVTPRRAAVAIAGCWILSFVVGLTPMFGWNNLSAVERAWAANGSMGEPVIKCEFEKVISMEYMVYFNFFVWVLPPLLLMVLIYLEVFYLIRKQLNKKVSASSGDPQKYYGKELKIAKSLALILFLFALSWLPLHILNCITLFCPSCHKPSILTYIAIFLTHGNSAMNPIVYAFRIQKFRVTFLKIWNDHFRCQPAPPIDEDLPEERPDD

[3] = biological target: T4, Cholecystokinin receptor type A (Homo sapiens, UniProt P32238)
T4 sequence (P32238 whole entry): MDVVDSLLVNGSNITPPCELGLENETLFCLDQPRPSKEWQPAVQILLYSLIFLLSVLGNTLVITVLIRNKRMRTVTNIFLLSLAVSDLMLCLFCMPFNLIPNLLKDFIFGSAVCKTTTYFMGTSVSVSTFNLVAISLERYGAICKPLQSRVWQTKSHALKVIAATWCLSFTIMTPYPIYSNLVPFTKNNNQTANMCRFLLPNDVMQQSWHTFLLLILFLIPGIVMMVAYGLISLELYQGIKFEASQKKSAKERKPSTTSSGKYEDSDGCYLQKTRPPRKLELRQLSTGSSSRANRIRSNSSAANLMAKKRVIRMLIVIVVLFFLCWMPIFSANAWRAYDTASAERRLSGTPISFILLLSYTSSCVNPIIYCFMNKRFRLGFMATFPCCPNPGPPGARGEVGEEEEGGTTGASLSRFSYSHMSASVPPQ

Melanocortin receptor 3 = Melanocortin receptor 3 (Homo sapiens, UniProt P41968)
Chain of Melanocortin receptor 3 (P41968 whole entry): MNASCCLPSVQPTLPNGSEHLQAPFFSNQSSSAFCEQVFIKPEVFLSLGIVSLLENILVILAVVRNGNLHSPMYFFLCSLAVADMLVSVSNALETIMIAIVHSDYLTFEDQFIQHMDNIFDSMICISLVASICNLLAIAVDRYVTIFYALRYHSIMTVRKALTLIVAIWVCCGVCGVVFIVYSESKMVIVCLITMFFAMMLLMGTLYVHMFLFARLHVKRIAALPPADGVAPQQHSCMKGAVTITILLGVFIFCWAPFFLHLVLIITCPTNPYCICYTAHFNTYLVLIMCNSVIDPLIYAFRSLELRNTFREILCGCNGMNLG

[4] = biological target: T5, Equilibrative nucleoside transporter 1 (Homo sapiens, UniProt Q99808)
T5 sequence (Q99808 whole entry): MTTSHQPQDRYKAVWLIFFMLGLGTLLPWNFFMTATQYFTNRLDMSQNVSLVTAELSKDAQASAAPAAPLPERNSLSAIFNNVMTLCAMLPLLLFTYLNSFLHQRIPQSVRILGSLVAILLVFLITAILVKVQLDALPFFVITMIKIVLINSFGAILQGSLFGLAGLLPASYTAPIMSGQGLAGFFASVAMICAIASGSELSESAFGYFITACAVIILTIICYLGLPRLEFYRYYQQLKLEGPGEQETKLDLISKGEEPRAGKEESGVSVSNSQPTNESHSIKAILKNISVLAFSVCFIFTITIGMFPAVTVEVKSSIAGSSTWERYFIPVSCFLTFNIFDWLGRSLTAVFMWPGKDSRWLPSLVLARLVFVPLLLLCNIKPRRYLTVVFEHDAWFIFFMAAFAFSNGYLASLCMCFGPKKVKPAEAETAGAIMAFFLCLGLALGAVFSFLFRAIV

Histamine H2 receptor = Histamine H2 receptor (Homo sapiens, UniProt P25021); format: functional, cell-based
Chain of Histamine H2 receptor (P25021 whole entry): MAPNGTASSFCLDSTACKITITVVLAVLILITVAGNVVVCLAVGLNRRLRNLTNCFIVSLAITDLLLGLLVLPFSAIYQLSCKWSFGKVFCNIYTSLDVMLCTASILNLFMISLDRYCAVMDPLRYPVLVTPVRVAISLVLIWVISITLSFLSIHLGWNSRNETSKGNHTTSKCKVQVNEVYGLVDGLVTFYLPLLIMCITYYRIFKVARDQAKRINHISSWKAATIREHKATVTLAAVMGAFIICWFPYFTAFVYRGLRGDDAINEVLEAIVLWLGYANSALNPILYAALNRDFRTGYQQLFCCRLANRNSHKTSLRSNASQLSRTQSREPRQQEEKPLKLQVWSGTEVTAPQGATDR

[5] = biological target: T6, Muscarinic acetylcholine receptor M2 (Homo sapiens, UniProt P08172); format: functional, cell-based
T6 sequence (P08172 whole entry): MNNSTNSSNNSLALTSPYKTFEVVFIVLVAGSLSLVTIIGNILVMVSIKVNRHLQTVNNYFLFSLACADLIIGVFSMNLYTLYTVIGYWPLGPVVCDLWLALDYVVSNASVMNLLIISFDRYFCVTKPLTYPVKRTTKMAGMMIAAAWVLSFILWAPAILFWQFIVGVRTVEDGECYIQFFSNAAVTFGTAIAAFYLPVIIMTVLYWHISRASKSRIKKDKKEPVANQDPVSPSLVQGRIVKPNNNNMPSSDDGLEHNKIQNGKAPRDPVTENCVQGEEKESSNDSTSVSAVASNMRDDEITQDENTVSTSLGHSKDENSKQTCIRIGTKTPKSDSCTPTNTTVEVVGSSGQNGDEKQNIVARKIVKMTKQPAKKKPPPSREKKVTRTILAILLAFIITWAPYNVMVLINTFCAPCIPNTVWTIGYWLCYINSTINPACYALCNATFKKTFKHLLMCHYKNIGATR
Further: assay procedure not described here.

Chain of Voltage-gated inwardly rectifying potassium channel KCNH2 (Q12809 whole entry): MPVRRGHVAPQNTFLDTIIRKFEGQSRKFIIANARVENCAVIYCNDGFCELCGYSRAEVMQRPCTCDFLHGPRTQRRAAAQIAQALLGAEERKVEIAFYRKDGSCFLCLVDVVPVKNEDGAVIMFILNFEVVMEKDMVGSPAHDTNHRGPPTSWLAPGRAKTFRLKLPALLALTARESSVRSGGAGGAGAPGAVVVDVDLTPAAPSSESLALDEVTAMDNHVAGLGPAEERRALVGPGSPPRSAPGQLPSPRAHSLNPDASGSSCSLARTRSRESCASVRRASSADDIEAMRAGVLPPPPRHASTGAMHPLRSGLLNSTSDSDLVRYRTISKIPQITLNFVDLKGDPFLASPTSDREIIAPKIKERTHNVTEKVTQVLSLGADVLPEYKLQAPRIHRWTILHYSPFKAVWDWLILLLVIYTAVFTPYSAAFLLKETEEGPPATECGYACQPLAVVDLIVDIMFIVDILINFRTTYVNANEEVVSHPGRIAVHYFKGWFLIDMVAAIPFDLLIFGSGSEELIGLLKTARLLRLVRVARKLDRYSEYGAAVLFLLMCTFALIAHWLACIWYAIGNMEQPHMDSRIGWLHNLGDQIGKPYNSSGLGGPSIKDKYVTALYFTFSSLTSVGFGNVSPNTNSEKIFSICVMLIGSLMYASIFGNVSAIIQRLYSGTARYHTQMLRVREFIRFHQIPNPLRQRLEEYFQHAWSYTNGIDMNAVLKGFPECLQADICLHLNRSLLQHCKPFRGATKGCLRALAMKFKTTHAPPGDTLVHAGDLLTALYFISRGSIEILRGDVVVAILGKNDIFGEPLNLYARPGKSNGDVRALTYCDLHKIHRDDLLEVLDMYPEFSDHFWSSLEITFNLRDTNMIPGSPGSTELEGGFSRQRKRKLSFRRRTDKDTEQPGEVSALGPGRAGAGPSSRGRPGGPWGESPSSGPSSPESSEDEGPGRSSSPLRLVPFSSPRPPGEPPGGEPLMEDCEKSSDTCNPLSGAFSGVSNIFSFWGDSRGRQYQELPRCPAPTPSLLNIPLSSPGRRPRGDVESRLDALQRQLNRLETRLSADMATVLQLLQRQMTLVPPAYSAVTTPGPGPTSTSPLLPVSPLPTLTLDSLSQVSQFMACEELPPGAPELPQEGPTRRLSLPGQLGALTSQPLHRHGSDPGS
Chain of Growth hormone secretagogue receptor type 1 (Q92847 whole entry): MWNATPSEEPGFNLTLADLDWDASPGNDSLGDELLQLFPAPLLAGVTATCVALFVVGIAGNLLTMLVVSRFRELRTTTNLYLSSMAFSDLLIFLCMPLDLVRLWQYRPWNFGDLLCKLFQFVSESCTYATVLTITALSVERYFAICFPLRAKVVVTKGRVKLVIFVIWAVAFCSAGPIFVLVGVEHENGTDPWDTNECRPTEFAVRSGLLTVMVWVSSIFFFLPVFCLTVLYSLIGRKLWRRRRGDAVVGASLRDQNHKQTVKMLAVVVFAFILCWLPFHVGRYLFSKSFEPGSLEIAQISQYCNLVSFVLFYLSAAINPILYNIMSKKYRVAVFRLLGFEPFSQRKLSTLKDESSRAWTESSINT

CC(C)N(CCNC(=O)CN1CCCC1=O)C(C)C
AC50 [1]: > 30 µM

CCC[C@H](NC(=O)[C@@H]1[C@H]2CCC[C@H]2CN1C(=O)[C@@H](NC(=O)[C@@H](NC(=O)c1cnccn1)C1CCCCC1)C(C)(C)C)C(=O)C(=O)NC1CC1
AC50 [2]: > 30 µM
AC50 (D(3) dopamine receptor): > 30 µM
AC50 [1]: > 30 µM
AC50 (Thromboxane A2 receptor): > 30 µM
AC50 (B2 bradykinin receptor): > 30 µM
AC50 (Adenosine receptor A1): > 30 µM
AC50 [3]: > 30 µM
AC50 (Melanocortin receptor 3): > 30 µM
AC50 [4]: > 30 µM

Cc1cc(N)c2ccccc2[n+]1CCCCCCCCCC[n+]1c(C)cc(N)c2ccccc21
AC50 [1]: 0.133 µM

CCOC(=O)[C@H](CCc1ccccc1)N[C@@H](C)C(=O)N(CC(=O)O)C1Cc2ccccc2C1
AC50 [1]: > 30 µM

C=CCSCC1Nc2cc(Cl)c(S(N)(=O)=O)cc2S(=O)(=O)N1 (stereo not given) [ALTHIAZIDE]
AC50 [1]: > 30 µM

C/N=C(\NC)NCc1ccccc1 [BETHANIDINE]
AC50 [2]: > 30 µM
AC50 (D(3) dopamine receptor): > 30 µM
AC50 [1]: > 30 µM
AC50 (B2 bradykinin receptor): > 30 µM
AC50 (Histamine H2 receptor): > 30 µM
AC50 (Adenosine receptor A1): > 30 µM
AC50 [3]: > 30 µM
AC50 [5]: > 30 µM
AC50 (Melanocortin receptor 3): > 30 µM
AC50 [4]: > 30 µM

CCC(C)C1(CC)C(=O)NC(=O)NC1=O (stereo not given) [BUTABARBITAL]
AC50 [2]: > 30 µM
AC50 [1]: > 30 µM
AC50 (B2 bradykinin receptor): > 30 µM
AC50 (Histamine H2 receptor): > 30 µM
AC50 (Adenosine receptor A1): > 30 µM
AC50 [3]: > 30 µM
AC50 [5]: > 30 µM
AC50 (Melanocortin receptor 3): > 30 µM
AC50 [4]: > 30 µM

CC(=O)O[C@]1(C(C)=O)CC[C@H]2[C@@H]3C=C(Cl)C4=CC(=O)CC[C@]4(C)[C@H]3CC[C@@]21C [CHLORMADINONE ACETATE]
AC50 [1]: > 30 µM

NC(=O)OCC(O)COc1ccc(Cl)cc1 (stereo not given) [CHLORPHENESIN CARBAMATE]
AC50 [1]: > 30 µM

O=C(O)c1cn(C2CC2)c2cc(N3CCNCC3)c(F)cc2c1=O [CIPROFLOXACIN]
AC50 [2]: > 30 µM
AC50 (Thromboxane A2 receptor): > 30 µM
AC50 (B2 bradykinin receptor): > 30 µM
AC50 (Adenosine receptor A1): > 30 µM
AC50 [3]: > 30 µM
AC50 (Melanocortin receptor 3): > 30 µM
AC50 [4]: > 30 µM

Cc1ccccc1N1CCN(CCc2nnc3n2CCCC3)CC1 [DAPIPRAZOLE]
AC50 [1]: > 30 µM

C[C@]12CC[C@@H]3c4ccc(O)cc4C[C@@H](CCCCCCCCC[S+]([O-])CCCC(F)(F)C(F)(F)F)[C@H]3[C@@H]1CC[C@@H]2O (stereo not given in full) [FULVESTRANT]
AC50 [2]: > 30 µM
AC50 (D(3) dopamine receptor): > 30 µM
AC50 [1]: > 30 µM
AC50 (B2 bradykinin receptor): > 30 µM
AC50 (Histamine H2 receptor): > 30 µM
AC50 (Adenosine receptor A1): > 30 µM
AC50 [3]: > 30 µM
AC50 [5]: > 30 µM
AC50 (Melanocortin receptor 3): > 30 µM
AC50 [4]: > 30 µM

Cc1cnc(C(=O)NCCc2ccc(S(=O)(=O)NC(=O)NC3CCCCC3)cc2)cn1 [GLIPIZIDE]
AC50 [2]: > 30 µM
AC50 (Thromboxane A2 receptor): > 30 µM
AC50 (B2 bradykinin receptor): > 30 µM
AC50 (Histamine H2 receptor): > 10 µM
AC50 (Adenosine receptor A1): > 30 µM
AC50 [3]: > 30 µM
AC50 (Melanocortin receptor 3): > 30 µM
AC50 [4]: > 30 µM

CCC(=O)O[C@]1(C(=O)CCl)[C@@H](C)C[C@H]2[C@@H]3C[C@H](F)C4=CC(=O)C=C[C@]4(C)[C@@]3(F)[C@@H](O)C[C@@]21C [HALOBETASOL PROPIONATE]
AC50 [1]: > 30 µM

CC(N)Cc1ccc(O)cc1 (stereo not given) [HYDROXYAMPHETAMINE]
AC50 [1]: > 30 µM

Cc1cc(NC(=O)C2=C(O)c3ccccc3S(=O)(=O)N2C)no1 [ISOXICAM]
AC50 [1]: > 30 µM

COc1cc2c(cc1OC)CC(=O)N(CCCN(C)C[C@H]1Cc3cc(OC)c(OC)cc31)CC2 [IVABRADINE]
AC50 [1]: 30 µM

Oc1ccc2c(c1)CC[C@H](c1ccccc1)[C@@H]2c1ccc(OCCN2CCCC2)cc1 [LASOFOXIFENE]
AC50 [2]: 5.2 µM
AC50 (D(3) dopamine receptor): 2.2 µM
AC50 [1]: 0.73 µM
AC50 (B2 bradykinin receptor): > 30 µM
AC50 (Histamine H2 receptor): > 30 µM
AC50 (Adenosine receptor A1): > 30 µM
AC50 [3]: > 3 µM
AC50 [5]: 15 µM
AC50 (Melanocortin receptor 3): 11 µM
AC50 [4]: > 30 µM

CC(C)(C)NC[C@H](O)COc1cccc2c1CCCC2=O [LEVOBUNOLOL]
AC50 [1]: > 30 µM

Cc1c(N(C)CS(=O)(=O)O)c(=O)n(-c2ccccc2)n1C [METAMIZOLE]
AC50 [1]: > 30 µM

CN1C(=O)/C(=N\NC(N)=S)c2ccccc21 [METHISAZONE]
AC50 [1]: > 30 µM

COC(=O)c1ccc(O)cc1 [METHYLPARABEN]
AC50 [1]: > 30 µM

CN(C)CCCNc1c2ccccc2nc2cccc([N+](=O)[O-])c12 [NITRACRINE]
AC50 [2]: > 30 µM
AC50 (D(3) dopamine receptor): 9.8 µM
AC50 [1]: 0.46 µM
AC50 (Thromboxane A2 receptor): > 30 µM
AC50 (B2 bradykinin receptor): > 30 µM
AC50 (Adenosine receptor A1): > 30 µM
AC50 [3]: > 30 µM
AC50 [5]: > 30 µM
AC50 (Melanocortin receptor 3): > 30 µM

O=[N+]([O-])c1ccc(O)c2ncccc12 [NITROXOLINE]
AC50 (D(3) dopamine receptor): 5.8 µM
AC50 [1]: 28 µM
AC50 (Histamine H2 receptor): > 30 µM
AC50 [5]: > 30 µM

CCCc1nc(C(C)(C)O)c(C(=O)O)n1Cc1ccc(-c2ccccc2-c2nnn[nH]2)cc1 [OLMESARTAN]
AC50 [1]: > 30 µM

NCC(CC(=O)O)c1ccccc1 (stereo not given) [PHENIBUT]
AC50 [1]: > 30 µM

CC[C@@H]([C@H](C)O)n1ncn(-c2ccc(N3CCN(c4ccc(OC[C@@H]5CO[C@@](Cn6cncn6)(c6ccc(F)cc6F)C5)cc4)CC3)cc2)c1=O [POSACONAZOLE]
AC50 (D(3) dopamine receptor): > 30 µM
AC50 [1]: > 30 µM
AC50 (Melanocortin receptor 3): > 30 µM

Cc1ncc(COP(=O)(O)O)c(C=O)c1O [PYRIDOXAL PHOSPHATE ANHYDROUS]
AC50 [1]: > 30 µM

COc1ccc(CN(CCN(C)C)c2ccccn2)cc1 [PYRILAMINE]
AC50 [1]: 9.59 µM

c1ccc2c(c1)CCc1ccccc1N2C1CN2CCC1CC2 (stereo not given) [QUINUPRAMINE]
AC50 [1]: 12 µM

CNCc1ccc(-c2[nH]c3cc(F)cc4c3c2CCNC4=O)cc1 [RUCAPARIB]
AC50 [2]: > 30 µM
AC50 [1]: 14.1 µM
AC50 (Thromboxane A2 receptor): > 30 µM
AC50 (B2 bradykinin receptor): > 30 µM
AC50 (Adenosine receptor A1): > 30 µM
AC50 [3]: > 30 µM
AC50 [5]: > 10 µM
AC50 (Melanocortin receptor 3): > 30 µM
AC50 [4]: > 30 µM

C[C@H](Cc1cc2c(c(C(N)=O)c1)N(CCCO)CC2)NCCOc1ccccc1OCC(F)(F)F [SILODOSIN]
AC50 [1]: 12.8 µM

CCOC(=O)N1CSC[C@H]1C(=O)O [TELMESTEINE]
AC50 [1]: > 30 µM
